From patent publication US12545706B2, “Pharmaceutical composition for preventing or treating Behcet's disease and rheumatoid arthritis, containing peptide or mixture thereof as active ingredient” (AJOU UNIVERSITY INDUSTRY-ACADEMIC COOPERATION FOUNDATION, priority 2019, dated 2026)
Where a SMILES comes first, the peptide text is derived from it.

What was measured:
[1] = tested on: mouse model with collagen-induced arthritis; test: Severity of arthritis in mouse model with collagen-induced arthritis; assay type: in vivo
Experimental: To prepare a mouse model with rheumatoid arthritis, subcutaneous injection (first immunization) was performed on the tail of a group of 8-week-old male ICR normal mice (average weight: 20 g) injected with 50 μg of a mixture obtained by mixing type II collagen with Complete Freund's adjuvant (CFA) and paraffin oil in the same amount. Two weeks later, the same substance was subcutaneously injected into the tail in the same manner to prepare an animal model with rheumatoid arthritis.
In the same manner as in Example 2, the mixture of P1, P2 and P4 peptides (P124) prepared in Example 1 was administered to the skin of mice as an external skin preparation.
In addition, the peptide mixture (P124) was treated as an external skin preparation once a day for 10 consecutive days, the arthritis treatment effect was checked after 5 weeks, and the results were shown in FIG. 5.

[2] = tested on: CD4+CD25+ cells, CD4+CD25+FoxP3+ cells, IL-17+ cells; test: Flow cytometry (FACS) of cells isolated from treated arthritis mouse model; assay type: in vivo; set-up: IL-17: unit not given here
[3] = Retention of fluorescently labeled peptide in abdominal cavity (FACS of intraperitoneal macrophages); assay type: in vivo, mouse; details: for stability in vivo: conclusion from FIG. 9 and FIG. 10
Experimental: After intraperitoneal injection of the fluorescently labeled peptide P4 into mice, intraperitoneal macrophages were isolated, and the frequency of fluorescently labeled macrophages was analyzed by FACS to measure the retention time of the peptides in the abdominal cavity, which was shown in FIG. 9.
In addition, the P1, P2, and P4 peptides were labeled with each different fluorescence, and the three types were mixed and administered to normal mice.

[4] = tested on: mouse animal model with Behcet's disease (HSV type 1 infected ICR mice); test: Therapeutic effect on skin ulcers and skin inflammation in mouse animal model with Behcet's disease; assay type: in vivo; details: peptides administered respectively; symptoms visually checked; FIG. 1
Experimental: Male ICR mice (4-5 weeks of age) were infected with HSV type 1 (1×10^6, 20 μL) grown in Vero cells as previously reported (S. Sohn et al., Eur J Dermatol, 8 (1): 21-23, 1998). 10 days after the first virus inoculation, the mice were infected twice by inoculating the virus again and monitored for 32 weeks. Animals were treated according to the guidelines provided by Institutional Animal Care and Use Committee (IACUC) of School of Medicine at Ajou University. The study protocol was approved by IACUC (Approval No.: AMC-2016-0010).
Symptoms include skin ulcers, skin pustule, genital ulcers, erythema, mouth ulcers, ear inflammation, arthritis, red eyes (left and right), decreased visual acuity (left and right), weight loss, and facial swelling. Mouth ulcers, genital ulcers, skin ulcers, and eye symptoms were classified as major symptoms while the other symptoms were mild.
Mice showing one or more major symptoms with one mild symptom were considered as BD mice, the score for each symptom was calculated as 1, and the sum of the scores was used to determine the severity of BD. When symptoms disappeared or the size of the lesion was reduced by 20% or more, it was classified as symptom improved state. The disease severity score for BD was calculated based on the BD Activity Index as described in the BD Activity Form (www.behcet.ws/pdf/BehcetsDiseaseActivityForm.pdf). […]

[5] = FACS frequency, Table 1, in % (unit assumed)
[6] = intraperitoneal injection, intraperitoneal macrophages, FIG. 9

In the case of CN(Cc1cnc2nc(N)nc(N)c2n1)c1ccc(C(=O)N[C@@H](CCC(=O)O)C(=O)O)cc1 [Methotrexate], the “duration of the effect on severity score for arthritis” value ([1]; FIG. 4, 10 weeks follow-up) is reported as “effect decreased after 7 weeks”, the “severity score for arthritis” value ([1]; external skin preparation, compared to PBS control group, followed 10 weeks, FIG. 4) is reported as “reduction in the severity score for arthritis was also shown” and the IL-17 ([2]; FACS frequency, Table 1) is reported as 13.15 ± 1.34. The “CD4 + CD25+” value [2, 5] was 3.7 ± 1.13, the “CD4 + CD25 + FoxP3+” value [2, 5] was 1.45 ± 0.49 and the ROR-gammaT ([2]; FACS, Table 1) was 6.2 ± 0.42.

For CC[C@H](C)[C@H](NC(=O)[C@@H](N)CC(C)C)C(=O)N[C@@H](CS)C(=O)N1CCC[C@H]1C(=O)N[C@@H](CCC(=O)O)C(=O)N[C@@H](CCCCN)C(=O)N[C@@H](Cc1ccc(O)cc1)C(=O)N[C@@H](CS)C(=O)N[C@@H](CC(N)=O)C(=O)N[C@@H](CCCCN)C(=O)N[C@H](C(=O)N[C@@H](Cc1c[nH]cn1)C(=O)N[C@H](C(=O)O)[C@@H](C)O)C(C)C [P1, LICPEKYCNKVHT] (H-LICPEKYCNKVHT-OH; N-terminus and C-terminus assumed), the stability in vivo [3] was “stably maintained”.

In the case of CC(C)[C@H](NC(=O)[C@H](CCCCN)NC(=O)[C@H](CC(N)=O)NC(=O)[C@H](CS)NC(=O)[C@@H](N)Cc1ccc(O)cc1)C(=O)N[C@@H](Cc1c[nH]cn1)C(=O)N[C@H](C(=O)N[C@@H](CS)C(=O)N[C@@H](CCCNC(=N)N)C(=O)N[C@@H](CC(N)=O)C(=O)NCC(=O)O)[C@@H](C)O [P2, YCNKVHTCRNG] (H-YCNKVHTCRNG-OH; N-terminus and C-terminus assumed), the stability in vivo [3] is reported as “stably maintained”.

With CC[C@H](C)[C@H](NC(=O)[C@H](CC(N)=O)NC(=O)[C@H](CCC(=O)O)NC(=O)CNC(=O)[C@H](CC(N)=O)NC(=O)[C@H](CCCNC(=N)N)NC(=O)[C@H](CS)NC(=O)[C@@H](NC(=O)[C@@H](N)Cc1c[nH]cn1)[C@@H](C)O)C(=O)N[C@@H](CS)C(=O)N[C@@H](Cc1ccccc1)C(=O)O [P4, HTCRNGENICF] (H-HTCRNGENICF-OH; N-terminus and C-terminus assumed) the stability in vivo [3] was “stably maintained”, the “time at which frequency of cells including the peptide was the highest” value [3, 6] was 24 h and the “time up to which frequency of cells including the peptide was maintained” value [3, 6] was “up to 72 hours”.

For ENICFKRFYEGNLLGKRYPRGCA [P5], the “skin ulcers and skin inflammation” value [4] was “alleviated”.
